Assay [1] has as its target Glycogen synthase kinase-3 alpha/beta (Sus scrofa). Kind of assay: Kinase activities were assayed in buffers containing substrate, enzyme, and inhibitor at 30 °C in the presence of 15 uM ATP/ [gamma-32P] ATP. 32P incorporation was measured with a scintillation counter. The IC50 is the inhibitor concentration, which inhibits 50% of kinase activity that catalyzes the transfer of the terminal phosphate from 32P l.

Assay [2] concerns the target Cyclin-dependent kinase 1/G2/mitotic-specific cyclin-B (Marthasterias glacialis, UniProt P15206+Q9DGD3). Put plainly: Kinase Inhibition Assay. The following applies: 30 °C.
In assay [3] the target is T1, Cyclin-dependent kinase 5 activator 1 [99-307] (Homo sapiens, UniProt Q00535).
T1 construct: 99-307
T1 sequence (Q15078 99-307): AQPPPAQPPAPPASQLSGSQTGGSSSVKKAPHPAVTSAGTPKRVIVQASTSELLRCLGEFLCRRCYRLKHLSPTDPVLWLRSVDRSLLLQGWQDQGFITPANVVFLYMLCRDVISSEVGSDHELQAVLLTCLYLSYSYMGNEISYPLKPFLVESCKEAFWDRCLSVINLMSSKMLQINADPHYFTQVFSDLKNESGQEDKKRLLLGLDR
T1 sequence (Q00535 whole entry): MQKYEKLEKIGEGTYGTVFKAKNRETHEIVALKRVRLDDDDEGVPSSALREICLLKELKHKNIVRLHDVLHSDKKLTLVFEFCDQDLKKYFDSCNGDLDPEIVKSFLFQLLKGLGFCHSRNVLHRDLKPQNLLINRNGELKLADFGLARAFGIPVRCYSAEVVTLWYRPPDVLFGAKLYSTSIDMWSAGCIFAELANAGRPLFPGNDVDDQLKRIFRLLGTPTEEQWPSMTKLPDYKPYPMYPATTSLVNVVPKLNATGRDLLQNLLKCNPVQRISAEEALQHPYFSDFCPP
Kind of assay: Kinase Inhibition Assay. The following applies: 30 °C.

Cyclin-dependent kinase 1/G2/mitotic-specific cyclin-B, sequence (Q9DGD3 whole entry): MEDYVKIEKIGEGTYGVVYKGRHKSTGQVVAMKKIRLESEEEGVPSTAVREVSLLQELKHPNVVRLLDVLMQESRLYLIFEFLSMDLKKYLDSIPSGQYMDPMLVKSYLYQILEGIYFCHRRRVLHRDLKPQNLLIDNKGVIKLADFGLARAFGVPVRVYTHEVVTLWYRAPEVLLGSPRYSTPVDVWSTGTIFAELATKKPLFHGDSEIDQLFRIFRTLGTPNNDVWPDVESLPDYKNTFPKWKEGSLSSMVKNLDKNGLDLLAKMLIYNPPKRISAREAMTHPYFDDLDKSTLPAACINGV
Cyclin-dependent kinase 1/G2/mitotic-specific cyclin-B, sequence (P15206 whole entry): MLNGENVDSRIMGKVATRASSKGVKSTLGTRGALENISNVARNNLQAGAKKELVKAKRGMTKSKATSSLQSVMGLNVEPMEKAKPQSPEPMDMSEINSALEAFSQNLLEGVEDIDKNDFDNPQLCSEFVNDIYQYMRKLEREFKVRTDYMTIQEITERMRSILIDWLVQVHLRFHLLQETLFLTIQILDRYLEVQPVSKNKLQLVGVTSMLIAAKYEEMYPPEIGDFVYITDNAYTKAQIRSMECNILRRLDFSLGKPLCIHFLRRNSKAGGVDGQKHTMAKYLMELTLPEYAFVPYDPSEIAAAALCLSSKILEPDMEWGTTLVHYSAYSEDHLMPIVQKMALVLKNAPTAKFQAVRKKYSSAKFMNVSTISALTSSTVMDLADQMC

In general, IC50 refers to the concentration needed to halve the response being measured. As to `O=C1Nc2cc(Br)c([N+](=O)[O-])cc2[C+]1c1[nH]c2ccccc2c1[O-]` [6-Bromo-5-nitroindirubin], the values for the half-maximal inhibitory concentration (IC50) in assay [1], in assay [2] and in assay [3] were 100 nM, greater than 100000 nM and greater than 100000 nM, respectively.
In turn, `O=Nc1c(C2C(=O)Nc3cc(I)ccc32)[nH]c2ccccc12` (stereo not drawn) [6-iodoindirubin-3-oxime] came in with an IC50 in assay [3] of 300 nM.
As for `O=Nc1c(C2C(=O)Nc3cc(F)ccc32)[nH]c2ccccc12` (stereo not drawn) [6-fluoro-3-[(2Z,3E)-3-(hydroxyimino)-2,3-dihydro-1H-indol-2-ylidene]-2,3-dihydro-1H-indol-2-one], the IC50 turned out to be 130 nM in assay [1], 320 nM in assay [2] and 150 nM in assay [3].
The corresponding values for `CC(=O)ON=C1C(=C2C(=O)Nc3cc(I)ccc32)Nc2ccccc21` [(2 Z,3 E)-6-Iodoindirubin-3-acetoxime] are 13 nM, 2200 nM and 1300 nM.
Consider `O=C1Nc2cc(Br)ccc2/C1=C1/Nc2ccccc2C1=O` [6-bromo-3-[(2Z)-3-oxo-2,3-dihydro-1H-indol-2-ylidene]-2,3-dihydro-1H-indol-2-one], for which the IC50 in assay [3] was 53000 nM.
Same read-out and setting: the same measure for `CO/N=C1/C(=C2/C(=O)Nc3ccccc32)Nc2ccccc21` [3-[(2Z,3E)-3-(methoxyimino)-2,3-dihydro-1H-indol-2-ylidene]-2,3-dihydro-1H-indol-2-one]: 400 nM.
`O=C1Nc2cc(Cl)ccc2/C1=C1/Nc2ccccc2C1=O` [6-chloro-3-[(2Z)-3-oxo-2,3-dihydro-1H-indol-2-ylidene]-2,3-dihydro-1H-indol-2-one]: the IC50 in assay [1] is 140 nM; in assay [2] (pH 7.2), greater than 100000 nM; in assay [3], greater than 100000 nM.
Regarding `CN1C(=O)/C(=C2\Nc3ccccc3C2=O)c2ccccc21` [1-methyl-3-[(2Z)-3-oxo-2,3-dihydro-1H-indol-2-ylidene]-2,3-dihydro-1H-indol-2-one], the IC50 in assay [1], in assay [2] and in assay [3] was greater than 100000 nM throughout.
As for `C=Cc1ccc2c(c1)NC(=O)C2c1[nH]c2ccccc2c1N=O` (stereo not drawn) [6-vinylindirubin-3-oxime], the results for the IC50 in assay [1], in assay [2] and in assay [3] were 60 nM, 1200 nM and 420 nM, respectively.
`CO/N=C1/C(=C2/C(=O)Nc3cc(Br)ccc32)Nc2ccccc21` [(2 Z,3 E)-6-Bromoindirubin-3-methoxime]: the half-maximal inhibitory concentration (IC50) in assay [1] was found to be 30 nM; in assay [2] (pH 7.2) it was 3700 nM; in assay [3] it was 2200 nM.
`O=Nc1c(C2C(=O)Nc3cc(Br)c([N+](=O)[O-])cc32)[nH]c2ccccc12` (stereo not drawn) [6-bromo-3-[(2Z,3E)-3-(hydroxyimino)-2,3-dihydro-1H-indol-2-ylidene]-5-nitro-2,3-dihydro-1H-indol-2-one] showed an IC50 in assay [3] of 150 nM.
Consider `CN1C(=O)C(c2[nH]c3ccccc3c2N=O)c2ccc(Br)cc21` (stereo not drawn) [(2 Z,3 E)-6-Bromo-1-methylindirubin-3-oxime], for which the IC50 in assay [1] is greater than 100000 nM; in assay [2] (pH 7.2), 92000 nM; in assay [3], greater than 100000 nM.
As to `CC(=O)ON=C1C(=C2C(=O)Nc3cc(F)ccc32)Nc2ccccc21` [(2 Z,3 E)-6-Fluoroindirubin-3-acetoxime], the IC50 in assay [3] worked out at 300 nM.
With `O=C1Nc2cc(Cl)c(Cl)cc2/C1=C1/Nc2ccccc2C1=O` [(2 Z)-5,6-Dichloroindirubin], the IC50 is 30 nM in assay [1], 45000 nM in assay [2] and 60000 nM in assay [3].
For `O=C1Nc2cccc(Cl)c2/C1=C1/Nc2ccccc2C1=O` [4-chloro-3-[(2Z)-3-oxo-2,3-dihydro-1H-indol-2-ylidene]-2,3-dihydro-1H-indol-2-one] the same measures were greater than 100000 nM, 10000 nM and 10000 nM.
For `CN1C(=O)/C(=C2\Nc3ccccc3C2=O)c2ccc(Br)cc21` [(2 Z)-6-Bromo-1-methylindirubin], the IC50 in assay [1], in assay [2] (pH 7.2) and in assay [3] was greater than 100000 nM in each case.
For `O=C1Nc2cc(I)ccc2/C1=C1/Nc2ccccc2C1=O` [6-iodoindirubin], the IC50 is 55 nM in assay [1], 1600 nM in assay [2] (pH 7.2) and 5300 nM in assay [3].
For `O=Nc1c(C2C(=O)Nc3cc(Cl)ccc32)[nH]c2ccccc12` (stereo not drawn) [6-chloro-3-[(2Z,3E)-3-(hydroxyimino)-2,3-dihydro-1H-indol-2-ylidene]-2,3-dihydro-1H-indol-2-one] the same measures were 20 nM, 650 nM and 100 nM.
For the compound `C=Cc1ccc2c(c1)NC(=O)C2=C1Nc2ccccc2C1=NOC(C)=O` [[(3E)-2-[(3Z)-6-ethenyl-2-oxo-2,3-dihydro-1H-indol-3-ylidene]-2,3-dihydro-1H-indol-3-ylidene]amino acetate], the results for the IC50 in assay [1], in assay [2] and in assay [3] were 65 nM, 1600 nM and 400 nM, respectively.
On to `Cc1cc2c(cc1Br)NC(=O)/C2=C1\Nc2ccccc2C1=O` [6-bromo-5-methylindirubin], for which the results for the IC50 in assay [1], in assay [2] and in assay [3] were 25 nM, 30000 nM and 60000 nM, respectively.
The corresponding values for `C=Cc1ccc2c(c1)NC(=O)/C2=C1\Nc2ccccc2C1=O` [6-vinylindirubin] are 240 nM, 4200 nM and 2400 nM.
`O=C1Nc2cc(F)ccc2/C1=C1/Nc2ccccc2C1=O` [6-fluoroindirubin]: it took 1000 nM to reach half-maximal inhibition in assay [3] (IC50).
With `O=Nc1c(C2C(=O)Nc3cc(Br)ccc32)[nH]c2cc(Br)ccc12` (stereo not drawn) [6-bromo-3-[(2Z,3E)-6-bromo-3-(hydroxyimino)-2,3-dihydro-1H-indol-2-ylidene]-2,3-dihydro-1H-indol-2-one], the IC50 was determined as 120 nM in assay [1], 17000 nM in assay [2] (pH 7.2) and 1300 nM in assay [3].
Consider `CC(=O)ON=C1C(=C2C(=O)Nc3ccccc32)Nc2ccccc21` [[(3E)-2-[(3Z)-2-oxo-2,3-dihydro-1H-indol-3-ylidene]-2,3-dihydro-1H-indol-3-ylidene]amino acetate], for which, in assay [3], the midpoint of inhibition, the IC50, lay at 700 nM.
As to `CC(=O)ON=C1C(=C2C(=O)Nc3cc(Cl)ccc32)Nc2ccccc21` [6-chloroindirubin-3-acetoxime], the IC50 was 17 nM in assay [1], 30000 nM in assay [2] (pH 7.2) and 200 nM in assay [3].
The compound `Cc1cc2c(cc1Br)NC(=O)C2c1[nH]c2ccccc2c1N=O` (stereo not drawn) [6-bromo-3-[(2Z,3E)-3-(hydroxyimino)-2,3-dihydro-1H-indol-2-ylidene]-5-methyl-2,3-dihydro-1H-indol-2-one] displayed a half-inhibitory concentration (IC50) in assay [3] of 130 nM.
On to `O=C1Nc2cc(Br)ccc2/C1=C1/Nc2cc(Br)ccc2C1=O` [(2 Z)-6,6 -Dibromoindirubin], for which the IC50 was 4500 nM in assay [1], greater than 100000 nM in assay [2] (pH 7.2) and greater than 100000 nM in assay [3].
On to `CN1C(=O)C(c2[nH]c3ccccc3c2N=O)c2ccccc21` (stereo not drawn) [3-[(2Z,3E)-3-(hydroxyimino)-2,3-dihydro-1H-indol-2-ylidene]-1-methyl-2,3-dihydro-1H-indol-2-one], for which the 50% inhibitory concentration (IC50) in assay [1] is greater than 100000 nM; in assay [2], 73000 nM; in assay [3], greater than 100000 nM.

(Values after BindingDB's records for doi:10.1021/jm031016d (University of Athens, 2004).)
